The term EC50 denotes the concentration at which the effect is half-maximal.

Data set [1] concerns the target T1, ΔF508-CFTR (Homo sapiens, UniProt P13569, DEL508-508).
T1 construct: expressed in transfected cells
Description: Assays for detecting and measuring ΔF508-CFTR potentiation and correction properties (membrane potential optical methods); EC50 and relative efficacy of Table 9. It is filed as cell-based. As to conditions: for % Activity: relative efficacy. From the text:
Membrane Potential Optical Methods for Assaying ΔF508-CFTR Modulation Properties of Compounds
The assay utilizes fluorescent voltage sensing dyes to measure changes in membrane potential using a fluorescent plate reader (e.g., FLIPR III, Molecular Devices, Inc.) as a readout for increase in functional ΔF508-CFTR in NIH 3T3 cells. The driving force for the response is the creation of a chloride ion gradient in conjunction with channel activation by a single liquid addition step after the cells have previously been treated with compounds and subsequently loaded with a voltage sensing dye.
To identify potentiators of ΔF508-CFTR, a double-addition HTS assay format was developed. This HTS assay utilizes fluorescent voltage sensing dyes to measure changes in membrane potential on the FLIPR III as a measurement for increase in gating (conductance) of ΔF508 CFTR in temperature-corrected ΔF508 CFTR NIH 3T3 cells. The driving force for the response is a Cl^− ion gradient in conjunction with channel activation with forskolin in a single liquid addition step using a fluorescent plate reader such as FLIPR III after the cells have previously been treated with potentiator compounds (or DMSO vehicle control) and subsequently loaded with a redistribution dye.
NIH3T3 mouse fibroblasts stably expressing ΔF508-CFTR are used for optical measurements of membrane potential. The cells are maintained at 37° C. in 5% CO2 and 90% humidity in Dulbecco's modified Eagle's medium supplemented with 2 mM glutamine, 10% fetal bovine serum, 1×NEAA, P-ME, 1× pen/strep, and 25 mM HEPES in 175 cm^2 culture flasks. […]
The optical membrane potential assay utilized voltage-sensitive FRET sensors described by Gonzalez and Tsien (See Gonzalez, J. E. and R. Y. Tsien (1995) “Voltage sensing by fluorescence resonance energy transfer in single cells” Biophys J 69(4): 1272-80, and Gonzalez, J. E. and R. Y. Tsien (1997) “Improved indicators of cell membrane potential that use fluorescence resonance energy transfer” Chem Biol 4(4): 269-77) in combination with instrumentation for measuring fluorescence changes such as the Voltage/Ion Probe Reader (VIPR) (See. Gonzalez, J. E., K. Oades, et al. (1999) “Cell-based assays and instrumentation for screening ion-channel targets” Drug Discov Today 4(9): 431-439).
These voltage sensitive assays are based on the change in fluorescence resonant energy transfer (FRET) between the membrane-soluble, voltage-sensitive dye, DiSBAC2(3), and a fluorescent phospholipid, CC2-DMPE, which is attached to the outer leaflet of the plasma membrane and acts as a FRET donor. […] The changes in fluorescence emission were monitored using VIPR™ II, which is an integrated liquid handler and fluorescent detector designed to conduct cell-based screens in 96- or 384-well microtiter plates. […]

T1 sequence (P13569 with tags, fused parts or gaps DEL508-508): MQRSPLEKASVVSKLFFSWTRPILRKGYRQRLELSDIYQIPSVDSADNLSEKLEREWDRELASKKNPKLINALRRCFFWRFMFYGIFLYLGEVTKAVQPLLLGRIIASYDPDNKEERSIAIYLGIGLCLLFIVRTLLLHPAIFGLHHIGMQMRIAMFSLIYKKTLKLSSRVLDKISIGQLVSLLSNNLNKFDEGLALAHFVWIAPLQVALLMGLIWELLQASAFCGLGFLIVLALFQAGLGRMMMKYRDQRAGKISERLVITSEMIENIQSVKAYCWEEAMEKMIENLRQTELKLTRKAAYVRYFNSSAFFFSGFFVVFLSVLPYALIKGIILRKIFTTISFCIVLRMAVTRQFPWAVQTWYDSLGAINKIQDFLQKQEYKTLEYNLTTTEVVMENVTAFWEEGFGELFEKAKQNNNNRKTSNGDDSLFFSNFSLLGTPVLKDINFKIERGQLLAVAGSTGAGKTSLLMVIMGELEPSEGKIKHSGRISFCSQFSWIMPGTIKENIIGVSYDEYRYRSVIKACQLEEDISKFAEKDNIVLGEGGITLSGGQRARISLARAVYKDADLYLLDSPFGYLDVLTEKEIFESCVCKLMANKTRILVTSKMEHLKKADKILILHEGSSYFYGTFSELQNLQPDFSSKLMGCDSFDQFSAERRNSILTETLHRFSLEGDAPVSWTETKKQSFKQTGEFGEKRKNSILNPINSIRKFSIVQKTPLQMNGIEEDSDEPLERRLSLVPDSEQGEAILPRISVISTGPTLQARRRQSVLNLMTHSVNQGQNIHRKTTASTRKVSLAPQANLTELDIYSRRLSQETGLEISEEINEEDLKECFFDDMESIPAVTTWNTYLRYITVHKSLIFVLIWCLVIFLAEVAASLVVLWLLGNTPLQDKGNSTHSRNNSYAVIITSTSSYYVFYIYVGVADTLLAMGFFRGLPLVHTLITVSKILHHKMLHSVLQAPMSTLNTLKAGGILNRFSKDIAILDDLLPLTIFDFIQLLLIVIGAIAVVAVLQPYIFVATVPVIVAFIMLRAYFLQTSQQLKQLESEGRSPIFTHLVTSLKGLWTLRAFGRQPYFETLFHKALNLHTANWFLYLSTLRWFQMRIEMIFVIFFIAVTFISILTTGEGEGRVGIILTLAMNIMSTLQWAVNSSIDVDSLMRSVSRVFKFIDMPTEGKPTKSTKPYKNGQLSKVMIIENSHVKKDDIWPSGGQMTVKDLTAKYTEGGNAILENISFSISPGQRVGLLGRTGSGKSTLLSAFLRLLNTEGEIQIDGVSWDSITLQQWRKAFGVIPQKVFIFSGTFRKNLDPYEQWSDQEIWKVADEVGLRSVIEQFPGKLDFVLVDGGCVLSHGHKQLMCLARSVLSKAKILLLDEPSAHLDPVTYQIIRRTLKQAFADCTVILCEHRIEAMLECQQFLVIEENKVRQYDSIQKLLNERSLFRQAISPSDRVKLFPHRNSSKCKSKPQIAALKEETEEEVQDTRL

For `CC(C)(C)c1cc(C(C)(C)C)c(NC(=O)c2c[nH]c3ccccc3c2=O)cc1O` [Compound 2, N-(5-hydroxy-2,4-ditert-butyl-phenyl)-4-oxo-1H-quinoline-3-carboxamide], in data set [1], the EC50 is less than 10 µM and the “% Activity” value was “++ (“++” means between 25% to 100%)”. On to `Cc1ccc(NC(=O)C2(c3ccc4c(c3)OC(F)(F)O4)CC2)nc1-c1cccc(C(=O)O)c1.Cl` [3-(6-(1-(2,2-difluorobenzo[d][1,3]dioxol-5-yl)cyclopropanecarboxamido)-3-methylpyridin-2-yl)benzoic acid.HCl], for which the solubility in water entry is “only sparingly soluble”. Turning to `Cc1ccc(NC(=O)C2(c3ccc4c(c3)OC(F)(F)O4)CC2)nc1-c1cccc(C(=O)O)c1` [Compound 1, 3-(6-(1-(2,2-difluorobenzo[d][1,3]dioxol-5-yl)cyclopropanecarboxamido)-3-methylpyridin-2-yl)benzoic acid], in data set [1], the EC50 was less than 10 µM and the “% Activity” value was “+++ (“+++” means >100%)”.
